The results in this text go back to patent US6391303B1, “Methods and compositions for inducing oral tolerance in mammals” (Emisphere Technologies, Inc., priority 1996, dated 2002).

Experiment [1] has as its system Experimental Autoimmune Encephalomyelitis (EAE).
Method: Two days after the (last) oral dose, all groups were challenged in the footpad with 0.05 mg of MBP emulsified with Complete Freund's Adjuvant containing Mycobacterium tuberculosis H37Ra, 4 mg/ml. Clinical signs of disease were observed starting on Day 11 after the challenge and rated on a scale of 0 (no disease) to 5 (death).
The subject of experiment [2] is anti-HA (influenza) IgG antibodies. Kind of experiment: ELISA for serum anti-HA IgG after single oral dose of influenza vaccine with delivery agent. To be noted: single oral dose 15 μg influenza vaccine A/Johannesburg/39/94 (H3N2) + 500 mg/kg delivery agent. In kind it is in vivo, BALB/c mice. The procedure: Ten BALB/c mice were administered a single oral dose of 15 μg of influenza antigen [influenza vaccine A/Johannesburg/39/94 (H3N2)] per mouse with 500 mg/kg of E352.
1. Coat plates with HA antigen, 10 μg/mL in carbonate buffer.
3. Block with Superblock™ or 1/10 diluted Bovine Serum Albumin (BSA).
4. Add 100 μL per well of diluent (Superblock™ or 1/15 diluted BSA) to all except the top row.
5. In the first row, add 150 μL per well of 1/100 diluted test serum in duplicate and serially dilute 3× down the plate. Leave 2 empty wells as background.
6. Incubate 2 hours at room temperature.
8. To each well, add 100 μl of IgG isotype-specific anti-mouse alkaline-phosphatase conjugated antibody (diluted with 4% PEG 6000).20. Incubate overnight at 4/C.
10. Add 100 μL per well of p-nitrophenyl phosphate (pNPP) substrate solution and incubate in the dark with shaking for 30 minutes.
11. Read and record OD405 after subtracting the background absorbance.
In general terms: In an ELISA, binding on a coated surface is turned into a signal by an enzyme label.

Setting [3] is: single dose MBP + delivery agent versus one or five doses of MBP alone.

Regarding `O=C(O)CCCc1ccc(NC(=O)c2ccccc2O)cc1` [E352, 4-[4-(N-salicyloyl)]aminophenyl butyric acid], in experiment [1] (setting [3]), the “Mean Disease Index per group (highest mean score multiplied by the duration of symptoms)” value was “suppressed these disease parameters significantly” and the “mean Maximal Score per group” value is “suppressed these disease parameters significantly”. Besides, the “mean day of onset of paralysis” value in experiment [1] (single oral dose 1.0 mg MBP alone or with delivery agent, day after challenge) was determined as 16 days. Moreover, the “clinical disease (Mean Clinical Score) of EAE” value in experiment [1] (single oral dose 1.0 mg MBP with delivery agent, footpad challenge 0.05 mg MBP/CFA, scale 0 to 5) is on record as “suppression of clinical disease”. Further, the “serum anti-HA IgG titer relative to control fed only influenza antigen” value in experiment [2] is “significantly suppressed the production of anti-influenza antibodies”.
